{"source": "paper PMC4048165", "about": "“Reaction Kinetics for the Biocatalytic Conversion of Phenazine-1-Carboxylic Acid to 2-Hydroxyphenazine” (PLoS ONE, 2014)", "target": "T1, PhzO (Pseudomonas chlororaphis, UniProt E3UVD3)", "T1 construct": "full-length phzO (1476-bp PCR fragment, about 491 residues) in pET28a, 6-His tag, E. coli BL21, Ni-NTA purified", "T1 sequence (E3UVD3 1-491)": "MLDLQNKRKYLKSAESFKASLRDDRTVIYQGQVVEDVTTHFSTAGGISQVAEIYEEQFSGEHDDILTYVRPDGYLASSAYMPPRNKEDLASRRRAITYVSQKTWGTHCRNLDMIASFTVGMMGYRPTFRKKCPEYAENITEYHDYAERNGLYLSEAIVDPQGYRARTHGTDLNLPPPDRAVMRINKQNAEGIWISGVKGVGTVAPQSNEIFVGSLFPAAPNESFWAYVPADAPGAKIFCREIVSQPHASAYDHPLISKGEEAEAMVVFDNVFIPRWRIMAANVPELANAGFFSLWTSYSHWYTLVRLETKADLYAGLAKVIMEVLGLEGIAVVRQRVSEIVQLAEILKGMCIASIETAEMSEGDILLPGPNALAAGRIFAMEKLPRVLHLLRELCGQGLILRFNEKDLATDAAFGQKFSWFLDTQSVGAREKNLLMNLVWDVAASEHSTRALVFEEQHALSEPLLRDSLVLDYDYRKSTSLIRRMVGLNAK", "assay": "HPLC detection of 2-OH-PCA and 2-OH-PHZ", "assay_type": "biochemical", "settings": "NADP(H), 1 mM Fe3+, PCA 200 mg/L, 0.1 M Tris-HCl; results call the enzyme purified, methods describe crude E. coli extract", "data": [{"smiles": "O=C(O)c1cccc2nc3ccccc3nc12", "note": "[PCA, phenazine-1-carboxylic acid]", "values": [{"measurement": "HPLC detection of 2-OH-PCA and 2-OH-PHZ", "result": "PhzO was sufficient to hydroxylate PCA to produce 2-OH-PHZ in the presence of NADP(H)"}]}]}
